This note sets out measurements from patent publication US10947242B2, “[1,2,4]triazolo[1,5and#8208;A]pyrimidine compounds as PDE2 inhibitors” (Janssen Pharmaceutica NV, priority 2016, dated 2021).

What is called Emax is the maximal effect, on the per cent scale that the assay sets.

Like-named read-outs stand apart in the source and are kept apart here.

Holding throughout (assay type): biochemical
The target in assay [1] is T1, Human recombinant PDE2A (hPDE2A) (Homo sapiens, UniProt O00408).
T1 construct: His tag (inferred from metal chelate purification); made in house; host or cells: Sf9 insect cells (baculovirus)
Nature of the assay: In vitro assay PDE2A (SPA, 3H-cGMP hydrolysis). The conditions noted are these: for Emax: read-out: hPDE2A Emax.

The target in assay [2] is T2, Human recombinant PDE10A (hPDE10A) (Homo sapiens, UniProt Q9Y233).
T2 construct: His tag (inferred from metal chelate purification); made in house; host or cells: Sf9 insect cells (baculovirus)
Nature of the assay: In vitro assay PDE10A, human clone (SPA, 3H-cAMP hydrolysis). An outline of the steps:
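Human recombinant PDE10A was expressed in Sf9 cells via baculovirus and incubated with compound in 50 mM Tris pH 7.8, 8.3 mM MgCl2, 1.7 mM EGTA. Substrate was 60 nM cAMP plus 0.008 μCi 3H-cAMP for 60 min at room temperature, read by SPA scintillation counting. Controls used 1% DMSO, and blanks omitted enzyme.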

Assay [3] addresses T3, Human recombinant PDE3A (hPDE3A) (Homo sapiens, UniProt Q14432).
T3 construct: purchased Scottish Biomedical; host or cells: Sf9 insect cells
Nature of the assay: In vitro assay PDE3A (SPA, 3H-cAMP hydrolysis).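 As to all read-outs here: the method names PDE3A and the table heading PDE3B.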 The conditions noted are these: for IC50: hPDE3B pIC50, read-out: pIC50 (converted); for Emax: read-out: hPDE3B Emax, read-out: Emax. The essentials: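 Human PDE3A, cloned from brain, as partially purified Sf9 lysate. Substrate 0.4 μM cAMP plus [3H]-cAMP (2.4 μCi/ml final) in 50 mM Tris pH 7.8, 8.3 mM MgCl2, 1.7 mM EGTA, 60 min at room temperature, 1% DMSO final. Hydrolysis read by SPA scintillation counting against no-enzyme blanks and DMSO controls.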

Where [4] appears, read: read-out: hPDE2A pIC50 (converted).
Where [5] appears, read: human clone by default (no (r) mark), read-out: hPDE10A2 or rPDE10A2 Emax.
Where [6] appears, read: human clone by default (no (r) mark), read-out: hPDE10A2 or rPDE10A2 pIC50 (converted).
Where [7] appears, read: human clone (h), default, read-out: hPDE10A2 Emax.
[8] abbreviates: human clone (h), default, read-out: hPDE10A2 pIC50 (converted).
[9] abbreviates: human recombinant PDE2A, 10 μM cGMP substrate, read-out: hPDE2A pIC50 (converted).

T2 sequence (Q9Y233 267-1055): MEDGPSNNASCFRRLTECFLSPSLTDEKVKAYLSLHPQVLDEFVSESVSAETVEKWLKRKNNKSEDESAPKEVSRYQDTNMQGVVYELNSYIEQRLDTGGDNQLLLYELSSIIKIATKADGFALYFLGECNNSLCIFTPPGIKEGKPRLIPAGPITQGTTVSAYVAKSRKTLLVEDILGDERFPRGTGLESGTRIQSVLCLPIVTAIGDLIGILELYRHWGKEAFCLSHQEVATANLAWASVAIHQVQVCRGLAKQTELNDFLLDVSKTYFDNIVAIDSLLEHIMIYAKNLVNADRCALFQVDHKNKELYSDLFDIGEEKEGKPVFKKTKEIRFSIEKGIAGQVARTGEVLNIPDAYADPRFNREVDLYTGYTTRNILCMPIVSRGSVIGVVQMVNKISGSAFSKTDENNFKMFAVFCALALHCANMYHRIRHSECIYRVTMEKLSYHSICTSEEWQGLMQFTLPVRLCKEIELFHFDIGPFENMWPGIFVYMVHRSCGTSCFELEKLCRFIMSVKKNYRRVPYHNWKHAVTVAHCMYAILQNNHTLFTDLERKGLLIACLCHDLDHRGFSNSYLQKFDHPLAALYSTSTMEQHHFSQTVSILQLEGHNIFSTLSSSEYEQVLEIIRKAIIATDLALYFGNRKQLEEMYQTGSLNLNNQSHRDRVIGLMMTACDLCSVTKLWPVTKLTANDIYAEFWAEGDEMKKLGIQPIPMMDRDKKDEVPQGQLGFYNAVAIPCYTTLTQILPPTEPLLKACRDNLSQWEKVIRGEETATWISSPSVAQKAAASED
T3 sequence (Q14432 whole entry): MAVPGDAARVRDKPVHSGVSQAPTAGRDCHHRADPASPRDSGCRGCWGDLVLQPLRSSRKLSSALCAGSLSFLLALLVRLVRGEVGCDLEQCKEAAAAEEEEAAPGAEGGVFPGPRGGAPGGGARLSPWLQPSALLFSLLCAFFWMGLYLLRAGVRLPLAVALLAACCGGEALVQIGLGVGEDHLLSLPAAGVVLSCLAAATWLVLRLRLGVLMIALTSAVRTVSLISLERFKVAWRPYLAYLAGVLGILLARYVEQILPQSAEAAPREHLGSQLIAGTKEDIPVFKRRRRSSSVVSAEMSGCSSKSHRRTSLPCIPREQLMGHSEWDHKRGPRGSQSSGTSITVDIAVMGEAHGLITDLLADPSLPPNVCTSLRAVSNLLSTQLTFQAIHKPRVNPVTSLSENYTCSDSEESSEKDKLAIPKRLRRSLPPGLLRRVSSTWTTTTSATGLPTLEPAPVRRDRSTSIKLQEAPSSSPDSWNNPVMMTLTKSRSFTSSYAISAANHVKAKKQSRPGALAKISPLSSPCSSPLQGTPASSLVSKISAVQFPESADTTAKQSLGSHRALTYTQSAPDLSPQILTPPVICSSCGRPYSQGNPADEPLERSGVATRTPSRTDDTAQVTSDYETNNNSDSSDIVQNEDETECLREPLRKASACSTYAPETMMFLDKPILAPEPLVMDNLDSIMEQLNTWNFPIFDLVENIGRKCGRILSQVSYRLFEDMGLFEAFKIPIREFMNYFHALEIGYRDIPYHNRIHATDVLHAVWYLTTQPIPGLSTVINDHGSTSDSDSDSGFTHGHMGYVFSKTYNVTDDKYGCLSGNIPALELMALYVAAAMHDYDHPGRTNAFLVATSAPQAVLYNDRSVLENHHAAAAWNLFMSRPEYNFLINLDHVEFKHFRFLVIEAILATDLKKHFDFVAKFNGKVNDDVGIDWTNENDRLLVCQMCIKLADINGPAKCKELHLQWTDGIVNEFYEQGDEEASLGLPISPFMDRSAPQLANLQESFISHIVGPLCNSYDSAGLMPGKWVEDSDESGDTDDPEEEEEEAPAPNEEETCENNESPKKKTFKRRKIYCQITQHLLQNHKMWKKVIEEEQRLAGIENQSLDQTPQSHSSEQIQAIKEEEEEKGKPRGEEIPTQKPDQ
T1 sequence (O00408 whole entry): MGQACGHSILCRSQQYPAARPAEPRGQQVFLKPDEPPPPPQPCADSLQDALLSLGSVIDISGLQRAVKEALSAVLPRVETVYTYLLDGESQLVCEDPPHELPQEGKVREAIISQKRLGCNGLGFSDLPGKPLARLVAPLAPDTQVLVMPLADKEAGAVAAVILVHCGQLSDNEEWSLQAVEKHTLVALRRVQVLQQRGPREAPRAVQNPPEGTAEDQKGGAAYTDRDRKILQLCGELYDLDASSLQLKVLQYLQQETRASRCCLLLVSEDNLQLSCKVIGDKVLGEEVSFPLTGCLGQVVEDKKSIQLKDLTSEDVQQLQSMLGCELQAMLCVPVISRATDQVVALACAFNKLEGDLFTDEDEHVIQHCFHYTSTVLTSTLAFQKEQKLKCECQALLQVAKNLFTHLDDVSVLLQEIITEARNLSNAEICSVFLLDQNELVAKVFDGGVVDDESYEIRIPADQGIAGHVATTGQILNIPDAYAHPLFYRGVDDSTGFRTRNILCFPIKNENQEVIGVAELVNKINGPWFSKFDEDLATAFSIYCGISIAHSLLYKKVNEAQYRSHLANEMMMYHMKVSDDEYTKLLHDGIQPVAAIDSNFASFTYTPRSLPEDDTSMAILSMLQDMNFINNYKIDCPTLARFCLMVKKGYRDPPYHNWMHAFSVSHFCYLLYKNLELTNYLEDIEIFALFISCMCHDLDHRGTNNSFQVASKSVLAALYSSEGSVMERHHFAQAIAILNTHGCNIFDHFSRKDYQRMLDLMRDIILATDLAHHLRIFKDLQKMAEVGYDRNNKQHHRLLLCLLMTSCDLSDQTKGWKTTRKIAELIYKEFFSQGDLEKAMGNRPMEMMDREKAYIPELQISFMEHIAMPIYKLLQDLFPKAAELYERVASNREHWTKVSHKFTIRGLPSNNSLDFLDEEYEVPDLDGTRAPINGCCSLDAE

`Cc1nc(C(F)(F)F)cc(C(=O)N2CC[C@@H](C)[C@H](c3cc(C(F)F)nc4ncnn34)C2)c1F` [Compound 394]: the figures for the maximal effect (Emax) in assay [1], in assay [2] (setting [5]) and in assay [3] were 99%, 76% and 27%, respectively. Besides, the IC50 was 0.00933 µM in assay [1] (setting [4]), 2.24 µM in assay [2] (setting [6]) and greater than 10 µM in assay [3].
Take `COc1nc(C)c(C(=O)N2CC[C@@H](C)[C@H](c3cc(C(F)F)nc4ncnn34)C2)s1` [Compound 185]: the maximum response (Emax) in assay [1] amounted to 98%; in assay [2] (setting [7]), 87%; in assay [3], 79%. The IC50 is 0.0219 µM in assay [1] (setting [4]), 1.2 µM in assay [2] (setting [8]) and 3.31 µM in assay [3].
For `Cc1nc2ccncc2cc1C(=O)N1CC[C@@H](C)[C@H](c2cc(C(F)F)nc3ncnn23)C1` [Compound 151], the figures for the Emax in assay [1], in assay [2] (setting [7]) and in assay [3] were 100%, 85% and 11%, respectively. In addition, the IC50 is 0.0407 µM in assay [1] (setting [4]), 1.38 µM in assay [2] (setting [8]) and greater than 10 µM in assay [3].
`C[C@@H]1CCN(C(=O)c2ccc(F)c(F)c2F)C[C@H]1c1cc(C(F)F)nc2ncnn12` [Compound 245]: the Emax is 99% in assay [1], 79% in assay [2] (setting [7]), 79% in assay [2] (setting [5]) and 62% in assay [3]. Further, the IC50 was 0.123 µM in assay [1] (setting [4]), 2.19 µM in assay [2] (setting [8]), 2.19 µM in assay [2] (setting [6]) and 5.89 µM in assay [3].
Turning to `COc1ccc(C(=O)N2CC[C@@H](C)[C@H](c3cc(C(F)F)nc4ncnn34)C2)cc1C#N` [Compound 265], the Emax in assay [1] was found to be 102%; in assay [2] (setting [7]), 98%; in assay [2] (setting [5]) it was 98%; in assay [3], 55%. Further, the IC50 was 0.0024 µM in assay [1] (setting [4]), 0.0372 µM in assay [2] (setting [8]), 0.0372 µM in assay [2] (setting [6]) and 6.31 µM in assay [3].
Take `C[C@@H]1CCN(C(=O)c2cccc3c2ncn3C)C[C@H]1c1cc(C(F)F)nc2ncnn12` [Compound 178]: the IC50 in assay [1] (setting [9]) is 0.0135 µM; in assay [1] (setting [4]) it was 0.0135 µM; in assay [2] (setting [8]), 0.794 µM; in assay [3], 7.41 µM. For the same compound, the Emax in assay [1] (human recombinant PDE2A) was 101%; in assay [1], 101%; in assay [2] (setting [7]) it was 92%; in assay [3] it was 62%.
Turning to `COc1cccc2cc(C(=O)N3CC[C@@H](C)[C@H](c4cc(C(F)F)nc5ncnn45)C3)oc12` [Compound 105], the IC50 is 0.000871 µM in assay [1] (setting [9]), 0.000871 µM in assay [1] (setting [4]), 0.0295 µM in assay [2] (setting [8]) and 1.35 µM in assay [3]. The Emax in assay [1] (human recombinant PDE2A) was determined as 101%; in assay [1] it was 101%; in assay [2] (setting [7]), 101%; in assay [3] it was 90%.
`O=C(c1ccc(F)c(F)c1)N1[C@H]2CC[C@H](c3cc(C(F)F)nc4ncnn34)[C@@H]1CC2` [Compound 337]: the values for the Emax in assay [1], in assay [2] (setting [5]) and in assay [3] were 99%, 71% and 43%, respectively. Besides, the IC50 is 0.166 µM in assay [1] (setting [4]), 4.57 µM in assay [2] (setting [6]) and greater than 10 µM in assay [3].
Take `C[C@@H]1CCN(C(=O)c2cccc(OC(F)(F)F)c2F)C[C@H]1c1cc(C(F)F)nc2ncnn12` [Compound 241]: the IC50 in assay [1] (setting [9]) is 0.0209 µM; in assay [1] (setting [4]) it was 0.0209 µM; in assay [2] (setting [8]), 0.269 µM; in assay [2] (setting [6]) it was 0.269 µM; in assay [3], 1.74 µM. In addition, the maximal effect (Emax) was 97% in assay [1] (human recombinant PDE2A); 97% in assay [1]; 94% in assay [2] (setting [7]); 94% in assay [2] (setting [5]); 88% in assay [3].
For the compound `O=C(c1ccc2sccc2c1)N1[C@H]2CC[C@H](c3cc(C(F)F)nc4ncnn34)[C@@H]1CC2` [Compound 372], the Emax in assay [1] stood at 100%; in assay [2] (setting [5]), 96%; in assay [3], 90%. The IC50 in assay [1] (setting [4]) was 0.00102 µM; in assay [2] (setting [6]), 0.251 µM; in assay [3], 1.35 µM.
Consider `C[C@@H]1CCN(C(=O)c2cncnc2)C[C@H]1c1cc(C(F)F)nc2ncnn12` [Compound 249], for which the Emax in assay [1] was determined as 95%; in assay [2] (setting [7]), 45%; in assay [2] (setting [5]) it was 45%; in assay [3] it was 10%. For the same compound, the IC50 in assay [1] (setting [4]) was 0.372 µM; in assay [2] (setting [8]), greater than 10 µM; in assay [2] (setting [6]) it was greater than 10 µM; in assay [3], greater than 10 µM.
Regarding `C[C@@H]1CCN(C(=O)c2c[nH]c3ccc(F)cc23)C[C@H]1c1cc(C(F)F)nc2ncnn12` [Compound 112], the IC50 is 0.001 µM in assay [1] (setting [9]), 0.001 µM in assay [1] (setting [4]), 0.0479 µM in assay [2] (setting [8]) and 1.78 µM in assay [3]. In addition, the maximal response (Emax) in assay [1] (human recombinant PDE2A) came to 101%; in assay [1], 101%; in assay [2] (setting [7]) it was 99%; in assay [3] it was 84%.
Regarding `CCCC[C@@H]1CCN(C(=O)c2cc(C)nc(C)c2)C[C@H]1c1cc(C(F)F)nc2ncnn12` (single isomer, unassigned) [Compound 45], the IC50 in assay [1] (setting [9]), in assay [1] (setting [4]), in assay [2] (setting [8]) and in assay [3] was greater than 10 µM in each case. For the same compound, the Emax in assay [1] (human recombinant PDE2A) worked out at 37%; in assay [1] it was 37%; in assay [2] (setting [7]) it was 24%; in assay [3], 1%.
On to `C/C(=C\c1ccccc1)C(=O)N1[C@H]2CC[C@H](c3cc(C(F)F)nc4ncnn34)[C@@H]1CC2` [Compound 371], for which the Emax in assay [1] amounted to 101%; in assay [2] (setting [5]) it was 98%; in assay [3], 96%. For the same compound, the IC50 is 0.0138 µM in assay [1] (setting [4]), 0.389 µM in assay [2] (setting [6]) and 0.389 µM in assay [3].
Turning to `Cc1c(C(=O)N2[C@H]3CC[C@@H]2[C@H](c2cc(C(F)F)nc4ncnn24)CC3)oc2ccccc12` [Compound 140], the IC50 in assay [1] (setting [9]) is 0.0295 µM; in assay [1] (setting [4]), 0.0295 µM; in assay [2] (setting [8]), 3.09 µM; in assay [3] it was 8.91 µM. The maximal effect (Emax) in assay [1] (human recombinant PDE2A) was determined as 100%; in assay [1], 100%; in assay [2] (setting [7]), 83%; in assay [3], 57%.
`Cc1cc(C(=O)N2[C@H]3CC[C@@H]2[C@H](c2cc(C(F)F)nc4ncnn24)CC3)cc(C2CC2)n1` [Compound 274]: the Emax stood at 97% in assay [1], 63% in assay [2] (setting [7]), 63% in assay [2] (setting [5]) and 7% in assay [3]. Further, the IC50 in assay [1] (setting [4]) is 0.288 µM; in assay [2] (setting [8]), 6.03 µM; in assay [2] (setting [6]) it was 6.03 µM; in assay [3], greater than 10 µM.
In the case of `C[C@@H]1CCN(C(=O)c2ccncc2C(F)(F)F)C[C@H]1c1cc(C(F)F)nc2ncnn12` [Compound 239], the IC50 in assay [1] (setting [9]) is 0.191 µM; in assay [1] (setting [4]) it was 0.191 µM; in assay [2] (setting [8]), greater than 10 µM; in assay [2] (setting [6]), greater than 10 µM; in assay [3], greater than 10 µM. In addition, the maximal effect (Emax) is 96% in assay [1] (human recombinant PDE2A); 96% in assay [1]; 43% in assay [2] (setting [7]); 43% in assay [2] (setting [5]); 16% in assay [3].
As to `Cc1cc([C@H]2CN(C(=O)c3ccc(C)c(C)n3)CC[C@@H]2C)n2ncnc2n1` [Compound 3b], the IC50 in assay [1] (hPDE2A pIC50) was 5.62 µM; in assay [1] (hPDE2A pIC50, human recombinant PDE2A, 10 μM cGMP substrate), 5.62 µM; in assay [2] (setting [8]) it was greater than 10 µM; in assay [3], greater than 10 µM. The values for the Emax in assay [1], in assay [2] (setting [7]) and in assay [3] were 64%, 19% and 14%, respectively.
